Measurements reported in patent publication US8946299B2, “Use of calixarenes associated with an antibiotic in the treatment of bacterial infections” (Universite de Lorraine, priority 2011, dated 2015).
Like-named read-outs stand apart in the source and are kept apart here.

Columns and labels:
[1] = tested on: ESBL-producing strain of Escherichia coli (EcR3); experiment: Chessboard technique: MICs alone and synergism of Cx1 combinations; format: cell-based; settings: antibiotic used alone; second figure of the cell; n = 4
Text: (§1) Three reference strains were used, corresponding to those studied for the MICs and MBCs (Minimum Bactericidal Concentration): Escherichia coli ATCC 25922, Staphylococcus aureus ATCC 29213, Pseudomonas aeruginosa ATCC 27853. For each of these strains 3 corresponding clinical isolates were chosen, having various antibiotic-resistance profiles, routinely used in standard fashion: • EcR1, EcR2, EcR3; • SaR1, SaR3, SaR4; • PaR2, PaR3, PaR5.
(§2) 1.3. Procedure: Chessboard Technique
(§3) The bacterial suspension is transferred to a 15 mL Falcon tube, centrifuged for 10 min at 4500 g, then the pellet is re-suspended in 1 mL of sterile distilled water. Suitable dilutions are then prepared in order to obtain a bacterial inoculum between 5·10^5 and 5·10^6 CFU/mL.
(§4) The MICs of the antibiotics were previously determined for each strain, by the method of microdilution in a liquid medium (CLSI (Clinical and Laboratory Standards Institute), 2003).
(§5) The same procedure is followed for the Cx1. […] Thus 64 ATB/Cx1 combinations are obtained.
(§6) The final volume contained in each of the wells must be 100 μL. Two controls must be present on each plate: • column 1 and 12: medium control • column 2 and 11: medium+bacteria control
(§7) Cx1: […] in the wells of […], starting with the lowest concentration.
(§8) ATB: 25 μL in the wells of rows H to A (columns 3 to 11), starting with the lowest concentration.
(§9) 50 μL in each of the wells of columns 2 to 11.
(§10) D2: Reading the Turbidity at 540 Nm.
(§11) The FIC (Fractional Inhibitory Concentration Index) value is determined by the following formula:
(§12) [formula] MICA in combination MICA alone MICB in combination MICB alone
(§13) When FIC≦0.5, there is a synergistic effect between antibiotic A and antibiotic B.
(§14) When 0.5<FIC≦1, there is an additive effect between antibiotic A and antibiotic B.
(§15) When 1<FIC≦4, there is an indifferent effect between antibiotic A and antibiotic B.
(§16) When FIC>4, there is an antagonistic effect between antibiotic A and antibiotic B.
(§17) For each strain and each antibiotic/Cx1 combination, the experiments were repeated a minimum of 3 times.

[2] = tested on: Pseudomonas aeruginosa strain ATCC 27853 (wild type); experiment: as above; format: cell-based; settings: antibiotic used alone; second figure of the cell; n = 4
Text: as §1, §2, §3, §4, §5, §6, §7, §8, §9, §10, §11, §12, §13, §14, §15, §16, §17

[3] = tested on: Pseudomonas aeruginosa strain having a resistance to β-lactams (including the carbapenems), aminoglycosides, the trimethoprim-sulphamethoxazole combination and …; experiment: as above; format: cell-based; settings: antibiotic used alone; second figure of the cell; n = 4
Text: as §1, §2, §3, §4, §5, §6, §7, §8, §9, §10, §11, §12, §13, §14, §15, §16, §17

[4] = tested on: cephalosporinase-hyperproducing strain of Escherichia coli (EcR2); experiment: as above; format: cell-based; settings: antibiotic used alone; second figure of the cell; n = 4
Text: as §1, §2, §3, §4, §5, §6, §7, §8, §9, §10, §11, §12, §13, §14, §15, §16, §17

[5] = tested on: mucoid strain of Pseudomonas aeruginosa having a resistance to rifampicin and the trimethoprim-sulphamethoxazole combination (PaR5); experiment: as above; format: cell-based; settings: antibiotic used alone; second figure of the cell; n = 4
Text: as §1, §2, §3, §4, §5, §6, §7, §8, §9, §10, §11, §12, §13, §14, §15, §16, §17

[6] = tested on: Pseudomonas aeruginosa strain having a resistance to β-lactams, the trimethoprim-sulphamethoxazole combination and fosfomycin (PaR2); format: cell-based; settings: antibiotic used alone; second figure of the cell; n = 4
Text: as §1, §2, §3, §4, §5, §6, §7, §8, §9, §10, §11, §12, §13, §14, §15, §16, §17

[7] = tested on: EcR1: Penicillinase-Producing Escherichia coli without Associated Resistance; experiment: Antibiogram, MIC by the VITEK 2 system; format: cell-based; settings: Table A1, category from MIC
Procedure: (§18) 5. Identification and Antibiogram 5.1 EcR1: Penicillinase-Producing Escherichia coli without Associated Resistance
(§19) The bacterial and antibiogram identification is carried out by the VITEK 2 system (bioMérieux) and by the disk diffusion technique.

[8] = tested on: EcR1: Penicillinase-Producing Escherichia coli without Associated Resistance; experiment: Antibiogram by the disk diffusion technique; format: cell-based; settings: for Results (diameter): Table A1, category from diameter vs Dmin Dmax; for Diameter: Table A1, disk diffusion
Procedure: as §18, §19

[9] = tested on: EcR2: Cephalosporinase-Hyperproducing Escherichia coli; experiment: Antibiogram by the disk diffusion technique; format: cell-based; settings: Table B2; strain EcR2; diameters
Procedure: 5.2 EcR2: Cephalosporinase-Hyperproducing Escherichia coli Having an Associated Resistance to the Aminoglycosides, Quinolones and the Trimethoprim-Sulphamethoxazole Combination
The bacterial and antibiogram identification is carried out by the VITEK 1 system (bioMérieux) and by the disk diffusion technique

[10] = tested on: Escherichia coli, Staphylococcus aureus and Pseudomonas aeruginosa strains; experiment: Chessboard technique, summary over all strains and combinations tested; format: cell-based
Text: as §1, §2
The FIC (Fractional Inhibitory Concentration Index) value is determined by the following formula: […]
as §17

[11] = tested on: Staphylococcus aureus strain ATCC 29213 (wild type); experiment: Chessboard technique: MICs alone and synergism of Cx1 combinations; format: cell-based
Text: as §1, §2, §3, §4, §5, §6, §7, §8, §9, §10, §11, §12, §13, §14, §15, §16, §17

[12] = as above; format: cell-based, Staphylococcus aureus; settings: Staphylococcus aureus, MRSA, read-out: MIC (antibiotic)
Text: as §1, §2, §3, §4, §5, §6, §7, §8, §9, §10, §11, §12, §13, §14, §15, §16, §17

[13] = tested on: MRSA strain having a resistance to the aminoglycosides and fluoroquinolones (SaR3); experiment: as above; format: cell-based, Staphylococcus aureus
Text: as §1, §2, §3, §4, §5, §6, §7, §8, §9, §10, §11, §12, §13, §14, §15, §16, §17

[14] = tested on: MRSA strain without associated resistance (SaR1); experiment: as above; format: cell-based, Staphylococcus aureus
Text: as §1, §2, §3, §4, §5, §6, §7, §8, §9, §10, §11, §12, §13, §14, §15, §16, §17

[15] = tested on: SaR4: Meticillin-Resistant Staphylococcus aureus; experiment: Antibiogram, MIC by the VITEK 2 system; format: cell-based
Procedure: 5.6 SaR4: Meticillin-Resistant Staphylococcus aureus Having an Associated Resistance to the Aminoglycosides, Fluoroquinolones, Macrolides-Lincosamines-Synergistins and Ofloxacin The bacterial and antibiogram identification is carried out by the VITEK 2 system (bioMérieux) and by the disk diffusion technique
(§20) 5.7 PaR2: Pseudomonas aeruginosa Having an Associated Resistance to the β-Lactams, the Trimethoprim-Sulphamethoxazole Combination and Fosfomycin The bacterial and antibiogram identification is carried out by the VITEK 2 system (bioMérieux) and by the disk diffusion technique

[16] = tested on: EcR3: ESBL-Producing Escherichia coli; experiment: Antibiogram by the disk diffusion technique; format: cell-based; settings: Table C1; strain EcR3
Procedure: 5.3 EcR3: ESBL-Producing Escherichia coli with Associated Resistance to the Aminoglycosides, Rifampicin and the Trimethoprim-Sulphamethoxazole Combination
The bacterial and antibiogram identification is carried out by the VITEK 2 system (bioMérieux) and by the disk diffusion technique

[17] = tested on: PaR2: Pseudomonas aeruginosa; format: cell-based; settings: Table G1; strain PaR2
Procedure: as §20

[18] = tested on: PaR5: Pseudomonas aeruginosa; experiment: Antibiogram by the disk diffusion technique; format: cell-based; design: unit not given here; settings: Table I1; strain PaR5
[19] = tested on: Escherichia coli strain ATCC 25922 (wild type); experiment: Chessboard technique: MICs alone and synergism of Cx1 combinations; format: cell-based; settings: antibiotic used alone; second figure of the cell; n = 4
Text: as §1, §2, §3, §4, §5, §6, §7, §8, §9, §10, §11, §12, §13, §14, §15, §16, §17

[20] = tested on: penicillinase-producing strain of Escherichia coli without associated resistance (EcR1); experiment: as above; format: cell-based; settings: antibiotic used alone; second figure of the cell; n = 4
Text: as §1, §2, §3, §4, §5, §6, §7, §8, §9, §10, §11, §12, §13, §14, §15, §16, §17

[21] = tested on: MRSA strain having a resistance to the aminoglycosides, fluoroquinolones, macrolides-lincosamides-synergistins and ofloxacin (SaR4); experiment: as above; format: cell-based, Staphylococcus aureus; settings: antibiotic used alone; second figure of the cell; n = 4
Text: as §1, §2, §3, §4, §5, §6, §7, §8, §9, §10, §11, §12, §13, §14, §15, §16, §17

[22] = tested on: SaR1: Meticillin-Resistant Staphylococcus aureus without Associated Resistance; experiment: Antibiogram by the VITEK 2 system; format: cell-based; settings: Table D1; strain SaR1
Procedure: 5.4 SaR1: Meticillin-Resistant Staphylococcus aureus without Associated Resistance
The bacterial and antibiogram identification is carried out by the VITEK 2 system (bioMérieux)
February 2006: Detection of the gene mecA by the PCR technique: POSITIVE Expert finding July 2006: totally typical phenotype: modification of the PLPs The fluctuations relative to the type of associated resistance for certain strains between Tables D1 and D2 are due to the development of the French (CA-SFM), European (EUCAST) and American (CLSI) recommendations for the categorization of bacterial strains. 5.5 SaR3: Meticillin-Resistant Staphylococcus aureus Having an Associated Resistance to the Aminoglycosides and Fluoroquinolones The bacterial and antibiogram identification is carried out by the VITEK 2 system (bioMérieux) and by the disk diffusion technique

[23] = tested on: SaR3: Meticillin-Resistant Staphylococcus aureus; experiment: Antibiogram by the disk diffusion technique; format: cell-based; settings: Table E1; strain SaR3
[24] = Staphylococcus aureus, MRSA, read-out: MIC (antibiotic)
[25] = antibiotic used alone, second figure of the cell, n = 4

NC[C@H]1O[C@H](O[C@H]2[C@H](O)[C@@H](O[C@H]3O[C@H](CO)[C@@H](O)[C@H](N)[C@H]3O)[C@H](N)C[C@@H]2N)[C@H](N)C[C@@H]1O [Tobramycin]
Initial MICs (antibiotic) [1]: 4 mg/L | MIC (antibiotic) [2]: 0.5 mg/L | MIC (antibiotic) [3]: 64 mg/L | Initial MICs (antibiotic) [4]: 4 mg/L | MIC (antibiotic) [5]: 1 mg/L | MIC (antibiotic) [6]: 1 mg/L | Results (MIC) [7]: Susceptible | Results (diameter) [8]: Susceptible | diameter in mm [9]: 10 mm | nature of the interaction between Cx1 and the antibiotic [10]: synergism

CN[C@H](CC(C)C)C(=O)N[C@H]1C(=O)N[C@@H](CC(N)=O)C(=O)N[C@H]2C(=O)N[C@H]3C(=O)N[C@H](C(=O)N[C@H](C(=O)O)c4cc(O)cc(O)c4-c4cc3ccc4O)[C@H](O)c3ccc(c(Cl)c3)Oc3cc2cc(c3O[C@@H]2O[C@H](CO)[C@@H](O)[C@H](O)[C@H]2O[C@H]2C[C@](C)(N)[C@H](O)[C@H](C)O2)Oc2ccc(cc2Cl)[C@H]1O [Vancomycin]
MIC ([11]; Staphylococcus aureus, ATCC29213, read-out: Initials MIC (antibiotic)): 0.5 µg/mL | MIC [12]: 0.25 µg/mL | MIC [13, 24]: 0.25 µg/mL | MIC [14, 24]: 0.25 µg/mL | MIC ([15]; Staphylococcus aureus, read-out: MIC mg/L): 1 mg/L | MIC ([15]; Table F2, strain SaR4, cells of the mixed column that are MICs): 1 mg/L

Colimycin
MIC (antibiotic) [2]: 4 mg/L | MIC (antibiotic) [3]: 8 mg/L | MIC (antibiotic) [5]: 16 mg/L | MIC (antibiotic) [6]: 8 mg/L | Results (diameter) [8]: Susceptible | Diameter [8]: 15 | diameter in mm ([8]; Table A2, diameter): 15 mm | Diameter [16]: 16 | Diameter [17]: 20 | Diameter [18]: 23

Gentamicin
Initial MICs (antibiotic) [1]: 2/2 mg/L | Initial MICs (antibiotic) [19]: 0.125 mg/L | Initials MIC (antibiotic) [11, 25]: 0.25 mg/L | Initial MICs (antibiotic) [4]: 2/2 mg/L | Initial MICs (antibiotic) [20]: 0.125 mg/L | MIC (antibiotic) [13, 25]: 0.125 mg/L | MIC (antibiotic) [21]: 0.25 mg/L | MIC (antibiotic) [14, 25]: 0.25 mg/L | Results (MIC) [7]: Susceptible | Results (diameter) [8]: Susceptible | Diameter [8]: 20 | Diameter [22]: 23 | Diameter [23]: 20 | Diameter [18]: 25 | nature of the interaction between Cx1 and the antibiotic [10]: synergism

Pristinamycin
Diameter [22]: 25 | Diameter [23]: 23
